In PMC5761213 (Journal of Pharmaceutical Analysis, 2014):
Where two headings read alike, the source gives them in different places.

Columns and labels:
[1] = target: T1, CYP1A2 (Homo sapiens, UniProt P05177); experiment: Effect of DMSO on CYP activity in human liver microsomes; type: in vitro ADME
T1 sequence (P05177 1-516): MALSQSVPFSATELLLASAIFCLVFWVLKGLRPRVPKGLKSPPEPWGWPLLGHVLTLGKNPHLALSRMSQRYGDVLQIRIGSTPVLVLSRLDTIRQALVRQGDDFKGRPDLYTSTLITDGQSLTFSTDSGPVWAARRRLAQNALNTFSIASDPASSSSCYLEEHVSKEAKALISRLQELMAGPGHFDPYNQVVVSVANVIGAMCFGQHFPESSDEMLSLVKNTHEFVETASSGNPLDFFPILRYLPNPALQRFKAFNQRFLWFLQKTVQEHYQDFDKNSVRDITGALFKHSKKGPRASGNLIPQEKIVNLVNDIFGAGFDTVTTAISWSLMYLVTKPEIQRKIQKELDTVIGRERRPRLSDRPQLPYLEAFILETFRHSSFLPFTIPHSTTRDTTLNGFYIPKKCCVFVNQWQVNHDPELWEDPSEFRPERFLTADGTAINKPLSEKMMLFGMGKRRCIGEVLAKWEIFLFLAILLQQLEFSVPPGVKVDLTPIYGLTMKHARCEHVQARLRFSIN

[2] = target: T2, CYP2C8 (Homo sapiens, UniProt P10632); experiment: as above; type: in vitro ADME
T2 sequence (P10632 1-490): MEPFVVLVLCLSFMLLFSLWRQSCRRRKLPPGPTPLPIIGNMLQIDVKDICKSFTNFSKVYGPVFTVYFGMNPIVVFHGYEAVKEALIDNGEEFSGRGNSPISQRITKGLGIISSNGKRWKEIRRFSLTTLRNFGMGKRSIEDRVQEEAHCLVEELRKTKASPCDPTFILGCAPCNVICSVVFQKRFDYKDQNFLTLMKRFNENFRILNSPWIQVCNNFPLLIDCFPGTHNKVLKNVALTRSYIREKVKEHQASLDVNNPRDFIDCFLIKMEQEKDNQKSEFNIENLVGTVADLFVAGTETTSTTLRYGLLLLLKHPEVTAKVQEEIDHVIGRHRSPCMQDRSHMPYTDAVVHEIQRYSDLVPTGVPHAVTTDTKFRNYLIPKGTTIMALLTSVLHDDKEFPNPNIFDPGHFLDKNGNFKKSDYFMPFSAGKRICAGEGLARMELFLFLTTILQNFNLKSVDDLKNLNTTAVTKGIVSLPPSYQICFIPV

[3] = target: T3, CYP2C19 (Homo sapiens, UniProt P33261); experiment: as above; type: in vitro ADME; settings: for activity loss: percent decrease of metabolite formation
T3 sequence (P33261 whole entry): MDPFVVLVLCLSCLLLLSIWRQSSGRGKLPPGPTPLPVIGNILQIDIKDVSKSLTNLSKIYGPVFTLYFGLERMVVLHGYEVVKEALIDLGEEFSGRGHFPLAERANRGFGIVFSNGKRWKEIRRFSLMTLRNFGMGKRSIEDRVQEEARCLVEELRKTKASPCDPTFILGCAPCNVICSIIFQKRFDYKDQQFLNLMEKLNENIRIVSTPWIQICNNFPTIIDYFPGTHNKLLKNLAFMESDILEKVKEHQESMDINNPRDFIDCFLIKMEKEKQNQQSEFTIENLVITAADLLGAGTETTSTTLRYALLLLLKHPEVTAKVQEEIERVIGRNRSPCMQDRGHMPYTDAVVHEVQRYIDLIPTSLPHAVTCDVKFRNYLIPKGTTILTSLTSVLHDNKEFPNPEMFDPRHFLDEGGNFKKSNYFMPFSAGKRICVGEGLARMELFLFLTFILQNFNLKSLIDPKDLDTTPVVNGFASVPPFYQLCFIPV

[4] = target: CYP2D6 (Homo sapiens, UniProt P10635); experiment: as above; type: in vitro ADME
CYP2D6, sequence (P10635 whole entry): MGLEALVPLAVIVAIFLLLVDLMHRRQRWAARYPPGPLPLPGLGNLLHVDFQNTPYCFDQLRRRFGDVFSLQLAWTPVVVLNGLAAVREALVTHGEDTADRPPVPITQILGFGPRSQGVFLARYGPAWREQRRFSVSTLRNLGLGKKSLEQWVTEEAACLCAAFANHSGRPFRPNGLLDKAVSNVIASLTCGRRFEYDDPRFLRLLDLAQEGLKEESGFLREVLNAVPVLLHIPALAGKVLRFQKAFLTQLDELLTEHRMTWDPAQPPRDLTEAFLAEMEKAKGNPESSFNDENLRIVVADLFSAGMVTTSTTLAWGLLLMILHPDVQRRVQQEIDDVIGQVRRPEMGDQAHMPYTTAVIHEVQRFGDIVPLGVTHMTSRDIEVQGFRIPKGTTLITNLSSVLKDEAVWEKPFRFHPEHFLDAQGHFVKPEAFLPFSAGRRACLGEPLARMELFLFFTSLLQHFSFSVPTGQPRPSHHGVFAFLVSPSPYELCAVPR

[5] = target: CYP3A4 (Homo sapiens, UniProt P08684); experiment: as above; type: in vitro ADME; settings: for activity loss: percent decrease of metabolite formation
CYP3A4, sequence (P08684 whole entry): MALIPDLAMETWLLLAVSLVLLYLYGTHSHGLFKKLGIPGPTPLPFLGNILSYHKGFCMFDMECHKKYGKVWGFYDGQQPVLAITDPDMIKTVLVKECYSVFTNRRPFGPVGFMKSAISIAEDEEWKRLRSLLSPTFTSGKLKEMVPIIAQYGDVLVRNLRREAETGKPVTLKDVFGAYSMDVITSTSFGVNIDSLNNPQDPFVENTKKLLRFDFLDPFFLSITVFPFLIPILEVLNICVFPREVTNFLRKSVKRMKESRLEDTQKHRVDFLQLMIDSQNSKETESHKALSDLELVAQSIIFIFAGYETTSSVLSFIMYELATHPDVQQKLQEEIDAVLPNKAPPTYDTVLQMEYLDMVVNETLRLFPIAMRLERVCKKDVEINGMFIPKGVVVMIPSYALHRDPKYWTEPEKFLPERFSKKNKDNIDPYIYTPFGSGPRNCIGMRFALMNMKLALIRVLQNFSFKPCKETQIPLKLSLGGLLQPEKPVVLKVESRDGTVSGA

[6] = target: T3, CYP2C19; experiment: CYP inhibition assay in human liver microsomes, S-mephenytoin probe; type: in vitro ADME; settings: IC50 calculated without SC, Single, pooled human liver microsomes, analyte-to-IS peak area ratio
[7] = target: T3, CYP2C19; settings: literature value, cited from earlier work
[8] = 0.5% DMSO, concentration set for the cocktail assay

## C[S+](C)[O-] [DMSO]
[1]; 0.1% DMSO
  reduction of metabolite formation: no significant reduction
[1]; [8]
  CYP activity reduced by: 8%
[1]; DMSO up to 1%
  effect of DMSO on CYP activity: not significantly affected
[2]; 0.1% DMSO
  reduction of metabolite formation: no significant reduction
[2]; [8]
  CYP activity reduced by: 11%
[2]; DMSO up to 1%
  effect of DMSO on CYP activity: not significantly affected
[3]; 0.1% DMSO
  reduction of metabolite formation: no significant reduction
[3]; 0.5% DMSO (v/v)
  activity loss: 44.8%
[3]; [8]
  CYP activity reduced by: 44%
[3]; 1% DMSO (v/v)
  activity loss: 55.0%
[4]; 0.1% DMSO
  reduction of metabolite formation: no significant reduction
[4]; [8]
  CYP activity reduced by: 12%
[4]; 1% DMSO (v/v), percent decrease of metabolite formation
  activity loss: 27.8%
[5]; 0.1% DMSO
  reduction of metabolite formation: no significant reduction
[5]; 0.5% DMSO (v/v)
  activity loss: 24.4%
[5]; 1% DMSO (v/v)
  activity loss: 52.7%

## C=C(C)[C@@H]1CCC2=CC(=O)C[C@@H](C)[C@]2(C)C1 [Nootkatone]
[6]
  IC50: 7.19 µM
[7]; read-out: reported IC50
  IC50: 9.56 µM
[7]; read-out: reported Ki
  Ki: 0.5 µM
